From the supplement of paper PMC10307832

Tests used:
Assay in all cases: relative viability (nuclei count vs DMSO), 5 days (fraction); higher = more cells survive
[1] = compound: COc1cc2nccc(Oc3ccc(NC(=O)C4(C(=O)Nc5ccc(F)cc5)CC4)cc3)c2cc1OC [Cabozantinib] + CS(=O)(=O)N1CCN(Cc2cc3nc(-c4cccc5[nH]ncc45)nc(N4CCOCC4)c3s2)CC1 [Pictilisib] (partner 1 µM)
In short: (§1)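 Five library-drug doses in √10 steps were combined with a fixed anchor-drug dose, or a single drug was given alone, by pin tool to lung cancer cell lines in 1536-well plates the day after seeding. Nuclei were stained and counted after 5 days. Relative viability is the nuclei count in treated wells over that in vehicle wells, taken as the median of duplicate plates.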

Zosuquidar + Alpelisib = compound: O[C@@H](COc1cccc2ncccc12)CN1CCN([C@@H]2c3ccccc3[C@@H]3[C@H](c4ccccc42)C3(F)F)CC1 [Zosuquidar] + Cc1nc(NC(=O)N2CCC[C@H]2C(N)=O)sc1-c1ccnc(C(C)(C)C(F)(F)F)c1 [Alpelisib] (partner 2 µM)
In short: as §1

Cabozantinib + Foretinib = compound: COc1cc2nccc(Oc3ccc(NC(=O)C4(C(=O)Nc5ccc(F)cc5)CC4)cc3)c2cc1OC [Cabozantinib] + COc1cc2c(Oc3ccc(NC(=O)C4(C(=O)Nc5ccc(F)cc5)CC4)cc3F)ccnc2cc1OCCCN1CCOCC1 [Foretinib] (partner 0.25 µM)
In short: as §1

Kobe2602 + Pemetrexed = compound: C1=CC(=CC=C1NC(=S)NNC2=C(C=C(C=C2[N+](=O)[O-])C(F)(F)F)[N+](=O)[O-])F [Kobe2602] + Nc1nc2[nH]cc(CCc3ccc(C(=O)N[C@@H](CCC(=O)O)C(=O)O)cc3)c2c(=O)[nH]1 [Pemetrexed] (partner 0.2 µM)
In short: as §1

Cell Line	relative viability ([1]; first compound 0.02 µM)	relative viability ([1]; first compound 0.06325 µM)	relative viability ([1]; first compound 0.2 µM)	relative viability ([1]; first compound 0.6325 µM)	relative viability ([1]; first compound 2 µM)	relative viability (Zosuquidar + Alpelisib; first compound 0.01 µM)	relative viability (Zosuquidar + Alpelisib; first compound 0.03162 µM)	relative viability (Zosuquidar + Alpelisib; first compound 0.1 µM)	relative viability (Zosuquidar + Alpelisib; first compound 0.3162 µM)	relative viability (Zosuquidar + Alpelisib; first compound 1 µM)	relative viability (Cabozantinib + Foretinib; first compound 0.02 µM)	relative viability (Cabozantinib + Foretinib; first compound 0.06325 µM)	relative viability (Cabozantinib + Foretinib; first compound 0.2 µM)	relative viability (Cabozantinib + Foretinib; first compound 0.6325 µM)	relative viability (Cabozantinib + Foretinib; first compound 2 µM)	relative viability (Kobe2602 + Pemetrexed; first compound 0.2 µM)	relative viability (Kobe2602 + Pemetrexed; first compound 0.6325 µM)	relative viability (Kobe2602 + Pemetrexed; first compound 2 µM)	relative viability (Kobe2602 + Pemetrexed; first compound 6.325 µM)	relative viability (Kobe2602 + Pemetrexed; first compound 20 µM)
NCI-H1563	0.572	0.607	0.637	0.621	0.66	0.935	0.988	0.904	0.988	0.921	1.02	0.907	0.953	0.912	0.893	0.846	0.717	0.611	0.786	0.847
NCI-H1651	0.548	0.62	0.513	0.547	0.468	1.05	1.02	0.856	0.915	0.975	1	0.739	1.05	0.875	0.783	0.526	0.51	0.569	0.573	0.731
NCI-H1666	0.404	0.4	0.396	0.503	0.439	0.876	1.04	1.04	0.912	0.863	1.04	1.06	0.99	0.949	0.981	0.81	0.861	1.01	0.934	0.861
NCI-H1734	0.417	0.414	0.472	0.453	0.434	0.815	0.666	0.631	0.809	0.643	0.916	0.864	0.878	0.858	0.769	0.445	0.419	0.422	0.418	0.398
NCI-H1755	0.445	0.534	0.383	0.358	0.309	0.89	0.951	0.888	0.94	0.913	0.911	1.01	0.92	0.917	0.856	0.514	0.419	0.447	0.391	0.398
NCI-H1793	0.416	0.325	0.296	0.27	0.293	0.717	0.665	–	0.825	0.776	0.738	1.07	0.645	0.678	0.617	0.732	1.04	0.781	0.903	0.875
NCI-H1915	0.929	1.04	0.903	0.949	0.908	1.04	1.1	0.989	1.06	1.08	1.17	1.14	1.08	1.07	1.13	0.489	0.498	0.458	0.503	0.45
NCI-H1944	–	0.367	0.369	0.34	0.342	0.836	0.722	0.717	0.837	0.765	1.04	0.938	0.9	0.895	0.867	0.632	0.658	0.738	0.626	0.62
NCI-H1975	0.28	0.322	0.297	0.303	0.337	0.624	0.653	0.679	0.675	0.713	1.04	1.01	1.1	0.89	0.849	0.271	0.306	0.265	0.294	0.286
NCI-H1993	0.842	0.804	0.987	0.811	0.878	0.628	0.725	0.625	0.674	0.705	0.807	0.74	0.649	0.745	0.735	0.561	0.589	0.461	0.531	0.587
NCI-H2009	0.979	0.882	0.882	0.754	0.959	1.08	0.96	1.19	1.15	1.14	1.24	1.26	1.19	1.28	1.29	1.02	1.03	1.09	1.02	0.979
NCI-H2023	0.189	0.228	0.22	0.206	0.2	0.601	0.636	0.6	0.548	0.613	0.917	1.2	1.05	0.956	0.896	0.218	0.255	0.194	0.211	0.0788
NCI-H2085	0.468	0.456	0.443	0.465	0.344	0.957	0.917	0.893	1	0.977	0.765	1.05	0.982	1.05	0.855	0.944	0.882	0.959	0.904	0.901
NCI-H2087	1.01	0.976	0.906	1.01	0.854	1	1.28	1.2	1.19	1.15	1.17	1	1.3	1.2	0.967	0.649	0.653	0.584	0.698	0.649
NCI-H2126	0.442	0.52	0.465	0.544	0.547	0.755	0.741	0.554	0.837	0.797	–	1.36	1.22	1.06	1.17	0.647	0.67	0.629	0.736	0.686
NCI-H2170	0.259	0.321	0.274	0.376	0.296	0.799	0.786	0.774	0.821	0.769	1.01	0.999	1	0.949	0.974	0.293	0.26	0.242	0.295	0.263
